Assay results from patent US20080275018A1, “ANTIBACTERIAL AMIDE-MACROCYCLES V” (AiCuris GmbH & Co. KG, priority 2005, published 2008).
Values after ≈ are worked out from the molar mass of the structure shown. Structures can show the parent of a compound that is named as a salt. Where two headings read alike, the source gives them in different places.

Legend:
S. aureus 133 = test: Minimum inhibitory concentration (MIC), S. aureus 133; assay type: cell-based, Staphylococcus aureus
Procedure: (§1) The minimum inhibitory concentration (MIC) is the minimum concentration of an antibiotic with which the growth of a test microbe is inhibited over 18-24 h. The inhibitor concentration can in these cases be determined by standard microbiological methods (see, for example, The National Committee for Clinical Laboratory Standards. Methods for dilution antimicrobial susceptibility tests for bacteria that grow aerobically; approved standard-fifth edition. NCCLS document M7-A5 [ISBN 1-56238-394-9]. NCCLS, 940 West Valley Road, Suite 1400, Wayne, Pa. 19087-1898 USA, 2000). The test substances are thereby initially provided in 1:2 dilution series into 96-well round-bottom microtiter plates (Greiner) double-concentrated in 50 μl of test medium. The aerobically growing test microbes (e.g. staphylococci and enterococci), which are incubated overnight on Columbia blood agar plates (Becton-Dickinson), are, after resuspension in 0.9% NaCl, adjusted to a microbe count of about 5×10^7 microbes/ml and then diluted 1:150 in cation-adjusted MH medium (test medium). 50 μL of this suspension are pipetted onto the test preparations provided in the microtiter plates. The cultures are incubated at 37° C. for 18-24 hours. For microaerophilically growing microbes (e.g. streptococci), 2% lysed horse blood in the final concentration is added to the medium and the cultures are incubated in the presence of 5% CO2. The lowest substance concentration in each case at which no visible bacterial growth occurs any longer is defined as the MIC and is reported in μg/ml.
(§2) The minimum inhibitory concentration (MIC) is the minimum concentration of an antibiotic with which the growth of a test microbe is inhibited over 18-24 h. The inhibitor concentration can in these cases be determined by standard microbiological methods (see, for example, The National Committee for Clinical Laboratory Standards. Methods for dilution antimicrobial susceptibility tests for bacteria that grow aerobically; approved standard-fifth edition. NCCLS document M7-A5 [ISBN 1-56238-394-9]. NCCLS, 940 West Valley Road, Suite 1400, Wayne, Pa. 19087-1898 USA, 2000). The MIC of the compounds of the invention is determined in the liquid dilution test on the 96-well microtiter plate scale. The bacterial microbes are cultivated in a minimal medium (18.5 mM Na2HPO4, 5.7 mM KH2PO4, 9.3 mM NH4Cl, 2.8 mM MgSO4, 17.1 mM NaCl, 0.033 μg/ml thiamine hydrochloride, 1.2 μg/ml nicotinic acid, 0.003 μg/ml biotin, 1% glucose, 25 μg/ml of each proteinogenic amino acid with the exception of phenylalanine; [H.-P. Kroll; unpublished]) with the addition of 0.4% BH broth (test medium). In the case of Enterococcus faecium L4001, heat-inactivated fetal calf serum (FCS; GibcoBRL, Germany) is added to the test medium in a final concentration of 10%. Overnight cultures of the test microbes are diluted to an OD578 of 0.001 (to 0.01 in the case of enterococci) in fresh test medium, and incubated 1:1 with dilutions of the test substances (1:2 dilution steps) in test medium ([…]). The cultures are incubated at 37° C. for 18-24 hours; enterococci in the presence of 5% CO2.
(§3) The lowest substance concentration in each case at which no visible bacterial growth occurs any longer is defined as the MIC.
(§4) The minimum inhibitory concentration (MIC) is the minimum concentration of an antibiotic with which the growth of a test microbe is inhibited over 18-24 h. The inhibitor concentration can in these cases be determined by standard microbiological methods with modified medium in an agar dilution test (see, for example, The National Committee for Clinical Laboratory Standards. Methods for dilution antimicrobial susceptibility tests for bacteria that grow aerobically; approved standard-fifth edition. NCCLS document M7-A5 [ISBN 1-56238-394-9]. NCCLS, 940 West Valley Road, Suite 1400, Wayne, Pa. 19087-1898 USA, 2000). The bacterial microbes are cultivated on 1.5% agar plates which contain 20% defibrinated horse blood. […]

S. aureus T17 = test: Minimum inhibitory concentration (MIC), biphenomycin-resistant S. aureus T17; assay type: cell-based, Staphylococcus aureus; settings: Staphylococcus aureus; biphenomycin-resistant S. aureus T17
Procedure: as §1, §2, §3, §4

E. faecium L4001 = test: Minimum inhibitory concentration (MIC), E. faecium L4001; assay type: cell-based, Enterococcus faecium; settings: Enterococcus faecium
Procedure: as §2, §3

[1] = target: S. aureus 133 Translation; test: S. aureus in vitro transcription-translation assay (firefly luciferase, S30 extract); assay type: biochemical; settings: 50% inhibition of the translation of firefly luciferase
Excerpt: For the construction of a reporter plasmid which can be used in an in vitro transcription-translation assay from S. aureus the plasmid pBESTluc (Promega Corporation, USA) is used. The E. coli tac promoter present in this plasmid in front of the firefly luciferase is replaced by the capA1 promoter with corresponding Shine-Dalgarno sequence from S. aureus. The primers CAPFor 5′-[…]-[…] GCCA-3′ and CAPRev 5′-[…]-3′ are used for this. The primer CAPFor contains the capA1 promoter, the ribosome binding site and the 5′ region of the luciferase gene. After PCR using pBESTluc as template it is possible to isolate a PCR product which contains the firefly luciferase gene with the fused capA1 promoter. This is, after restriction with ClaI and HindIII, ligated into the vector pBESTluc which has likewise been digested with ClaI and HindIII. The resulting plasmid pla can be replicated in E. coli and be used as template in the S. aureus in vitro transcription-translation test.
Six litres of BHI medium are inoculated with a 250 ml overnight culture of an S. aureus Strain and allowed to grow at 37° C. until the OD600 nm is 2-4. The cells are harvested by centrifugation and washed in 500 ml of cold buffer A (10 mM Tris acetate, pH 8.0, 14 mM magnesium acetate, 1 mM DTT, 1 M KCl). After renewed centrifugation, the cells are washed in 250 ml of cold buffer A with 50 mM KCl, and the resulting pellets are frozen at −20° C. for 60 min. The pellets are thawed on ice in 30 to 60 min and taken up to a total volume of 99 ml in buffer B (10 mM Tris acetate, pH 8.0, 20 mM magnesium acetate, 1 mM DTT, 50 mM KCl). 1.5 ml portions of lysostaphin (0.8 mg/ml) in buffer B are provided in 3 precooled centrifuge cups and each mixed with 33 ml of the cell suspension. The samples are incubated at 37° C., shaking occasionally, for 45 to 60 min, before 150 μl of a 0.5 M DTT solution are added. The lysed cells are centrifuged at 30 000×g and 4° C. for 30 min. The cell pellet is taken up in buffer B and then centrifuged again under the same conditions, and the collected supernatants are combined. The supernatants are centrifuged again under the same conditions, and 0.25 volumes of buffer C (670 mM Tris acetate, pH 8.0, 20 mM magnesium acetate, 7 mM Na3 phosphoenolpyruvate, 7 mM DTT, 5.5 mM ATP, 70 μM amino acids (complete from Promega), 75 μg of pyruvate kinase (Sigma, Germany)/ml are added to the upper ⅔ of the supernatant. The samples are incubated at 37° C. for 30 min. The supernatants are dialysed against 2 l of dialysis buffer (10 mM Tris acetate, pH 8.0, 14 mM magnesium acetate, 1 mM DTT, 60 mM potassium acetate) in a dialysis tube with a 3500 Da cut-off with one buffer change at 4° C. overnight. The dialysate is concentrated to a protein concentration of about 10 mg/ml by
covering the dialysis tube with cold PEG 8000 powder (Sigma, Germany) at 4° C. The S30 extracts can be stored in aliquots at −70° C.
The inhibition of protein biosynthesis of the compounds can be shown in an in vitro transcription-translation assay. The assay is based on the cell-free transcription and translation of firefly luciferase using the reporter plasmid pla as template and cell-free S30 extracts obtained from S. aureus. The activity of the resulting luciferase can be detected by luminescence measurement.
The amount of S30 extract or plasmid pla to be employed must be tested anew for each preparation in order to ensure an optimal concentration in the test. […] of the substance to be tested, dissolved in 5% DMSO, are introduced into an MTP. Then […] of a suitably concentrated plasmid solution pla are added. […]

[2] = Staphylococcus aureus, 133; read-out: MIC S. aureus 133
[3] = E. faecium L4001, 10% FCS in test medium, read-out: MIC E. faecium L4001
[4] = Staphylococcus aureus, 133, read-out: MIC S. aureus 133
[5] = L4001, read-out: MIC E. faecium L4001

Structure (SMILES)	MIC (S. aureus 133; [2]) [µg/mL]	MIC (S. aureus T17) [µg/mL]	MIC (E. faecium L4001; [3]) [µg/mL]	IC50 [1] [nM]	MIC (S. aureus 133; [4]) [µg/mL]	MIC (E. faecium L4001; [5]) [µg/mL]
NCCC[C@H](NC(=O)[C@@H]1Cc2cccc(c2)-c2ccc(O)c(c2)C[C@H](N)C(=O)N[C@@H](C[C@@H](O)CN)C(=O)N1)C(=O)NCCN [Example 1, (8S,11S,14S)-14-Amino-N-((1S)-4-amino-1-{[(2-aminoethyl)amino]carbonyl)}butyl)-11-[(2R)-3-amino-2-hydroxypropyl]-17-hydroxy-10,13-dioxo-9,12-diazatricyclo[14.3.1.1^2,6]-henicosa-1 (20),2(21),3,5,16,18-hexaene-8-carboxamide tetrahydrochloride]	0.5	1	4	70		
NCCC[C@H](N)CNC(=O)[C@H](CCCN)NC(=O)[C@@H]1Cc2cccc(c2)-c2ccc(O)c(c2)C[C@H](N)C(=O)N[C@@H](CCCN)C(=O)N1 [Example 3, (8S,11S,14S)-14-Amino-N-[(s)-4-amino-1-({[(25)-2,5-diaminopentyl]amino}carbonyl)butyl]-11-(3-aminopropyl)-17-hydroxy-10,13-dioxo-9,12-diazatricyclo[14.3.1.1^2,6]henicosa-1(20),2(21),3,5,16,18-hexaene-8-carboxamide pentahydrochloride]	2	2	16	200		
NCCNC(=O)[C@@H](N)CCCNC(=O)[C@@H]1Cc2cccc(c2)-c2ccc(O)c(c2)C[C@H](N)C(=O)N[C@@H](C[C@@H](O)CN)C(=O)N1 [Example 5, (8S,11S,14S)-14-Amino-N-{(4S)-4-amino-5-[(2-aminoethyl)amino]-5-oxopentyl}-11-[(2R)-3-amino-2-hydroxypropyl]-17-hydroxy-10,13-dioxo-9,12-diazatricyclo[14.3.1.1^2,6]-henicosa-1(20),2(21),3,5,16,18-hexaene-8-carboxamide tetrahydrochloride]		1		200	1	2
NCCC[C@H](NC(=O)[C@@H]1Cc2cccc(c2)-c2ccc(O)c(c2)C[C@H](N)C(=O)N[C@@H](CCCN)C(=O)N1)C(=O)NCCC[C@H](N)CC(=O)NCCN [Example 12, (8S,11S,14S)-14-Amino-N-{(1S)-4-amino-1-[({(4S)-4-amino-6-[(2-aminoethyl)amino]-6-oxohexyl}amino)carbonyl]butyl}-11-(3-aminopropyl)-17-hydroxy-10,13-dioxo-9,12-diazatricyclo[14.3.1.1^2,6]henicosa-1(20),2(21),3,5,16,18-hexaene-8-carboxamide pentahydrochloride]		1			1	16
NCCC[C@H](N)CNC(=O)C[C@@H](N)CCCNC(=O)[C@H](CCCN)NC(=O)[C@@H]1Cc2cccc(c2)-c2ccc(O)c(c2)C[C@H](N)C(=O)N[C@@H](CCCN)C(=O)N1 [Example 15, (8S,11S,14S)-14-Amino-N-((1S)-4-amino-1-{[((4S)-4-amino-6-{[(2S)-2,5-diaminopentyl]-amino}-6-oxohexyl)amino]carbonyl}butyl)-11-(3-aminopropyl)-17-hydroxy-10,13-dioxo-9,12-diazatricyclo[14.3.1.1^2,6]henicosa-1 (20),2(21),3,5,16,18-hexaene-8-carboxamide hexahydrochloride]		2		100	1	> 32
NCCC[C@H](N)CNC(=O)C[C@H](CCCN)NC(=O)[C@@H]1Cc2cccc(c2)-c2ccc(O)c(c2)C[C@H](N)C(=O)N[C@@H](CCCN)C(=O)N1 [Example 19, (8S,11S,14S)-14-Amino-N-[(1S)-4-amino-1-(2-{[(2S)-2,5-diaminopentyl]amino}-2-oxoethyl)butyl]-11-(3-aminopropyl)-17-hydroxy-10,13-dioxo-9,12-diazatricyclo[14.3.1.1^2,6]henicosa-1 (20),2(21),3,5,16,18-hexaene-8-carboxamide penta(hydrotrifluoroacetate)]	1 (≈ 1.5 µM)	1 (≈ 1.5 µM)	16 (≈ 24 µM)	100		
CN1C(=O)[C@H](C[C@@H](O)CN)NC(=O)[C@@H](N)Cc2cc(ccc2O)-c2cccc(c2)C[C@H]1C(=O)NCCC(=O)NC[C@@H](N)CCCN [Example 68]	1 (≈ 1.56 µM)	1 (≈ 1.56 µM)	8 (≈ 12.5 µM)	200		
